In patent US20090093454A1, “Chemical Compounds” (priority 2005, published 2009):
pIC50: −log10 of the molar value.

Test system: HIV-1
Assay: HIV infectivity assay (Table 2, strain not given)
Assay type: cell-based
Conditions: Human immunodeficiency virus 1, read-out: Activity Level
Description: (§1) Compounds were profiled against two HIV-1 viruses, the M-tropic (CCR5 utilizing) Ba-L strain and the T-tropic (CXCR4 utilizing) IIIB strain. Both viruses were propagated in human peripheral blood lymphocytes. Compounds were tested for there ability to block infection of the HOS cell line (expressing hCXCR4/hCCR5/hCD4/pHIV-LTR-luciferase) by either HIV-1 Ba-L or HIV-1, IIIB. Compound cytotoxicity was also examined in the absence of virus addition.
(§2) HOS cells (expressing hCXCR4/hCCR5/hCD4/pHIV-LTR-luciferase) were harvested and diluted in Dulbeccos modified Eagles media supplemented with 2% FCS and non-essential amino acid to a concentration of 60,000 cells/ml. The cells were plated into 96-well plates (100 ul per well) and the plates were placed in a tissue culture incubator (37° C.; 5% CO2/95% air) for a period of 24 h.
Subsequently, 50 ul of the desired drug solution (4 times the final concentration) was added to each well and the plates were returned to the tissue culture incubator (37° C.; 5% CO2/95% air) for 1 h. Following this incubation 50 ul of diluted virus was added to each well (approximately 2 million RLU per well of virus). The plates were returned to the tissue culture incubator (37° C.; 5% CO2/95% air) and were incubated for a further 96 h.
Following this incubation the endpoint for the virally infected cultures was quantified following addition of Steady-Glo Luciferase assay system reagent (Promega, Madison, Wis.). Cell viability or non-infected cultures was measured using a CellTiter-Glo luminescent cell viability assay system (Promega, Madison, Wis.). All luminescent readouts are performed on a Topcount luminescence detector (Packard, Meridien, Conn.).
as §1, with “Ba-L was” for “Both viruses were”, “either peripheral blood lymphocytes or SupT1/CCR5+/CXCR4+ cells. IIIB was propagated in” for “human”, “their” for “there”
as §2, with “FCS” for “FCS and non-essential amino acid”, “120,000” for “60,000”, “(50 μl” for “(100 ul”, “(370°” for “(37°”
Subsequently, 50 μl of the desired drug solution (2 times the final concentration) was added to each well and the plates were returned to the tissue culture incubator (370° C.; 5% CO2/95% air) for 1 h. Following this incubation, 60 μl of diluted virus (4 times the final concentration) was added to 60 μl of 2× the final desired concentration of the compound and 100 μl of this compound/virus mix was added to each well (approximately 2 million RLU per well of virus). The plates were returned to the tissue culture incubator (370° C.; 5% CO2/95% air) and were incubated for a further 96 h.

`CN1CCN(Cc2c(CN3CCC[C@H]4CCc5cccnc5[C@H]43)nc3cccc(N4CCN(C)CC4)n23)CC1` [Example 56, (4aR,10bS)-1-({5-(4-methyl-1-piperazinyl)-3-[(4-methyl-1-piperazinyl)methyl]imidazo[1,2-a]pyridin-2-yl}methyl)-1,2,3,4,4a,5,6,10b-octahydro-1,10-phenanthroline] and `CN1CCN(c2cccc3nc(CN4CCC[C@H]5CCc6cccnc6[C@H]54)c(CN4CCCC4)n23)CC1` [Example 58, (4aR,10bS)-1-{[5-(4-methyl-1-piperazinyl)-3-(1-pyrrolidinylmethyl)imidazo[1,2-a]pyridin-2-yl]methyl}-1,2,3,4,4a,5,6,10b-octahydro-1,10-phenanthroline] cannot be ordered by pIC50: over 7.00 for the first, over 7.00 for the second.

`CN1CCN(c2cccc3nc(CN4CCC[C@H]5CCc6cccnc6[C@H]54)c(CN4CCCCC4)n23)CC1` [Example 57, (4aR,10bS)-1-{[5-(4-methyl-1-piperazinyl)-3-(1-piperidinylmethyl)imidazo[1,2-a]pyridin-2-yl]methyl}-1,2,3,4,4a,5,6,10b-octahydro-1,10-phenanthroline] and `CN1CCN(c2cccc3nc(CN4CCC[C@H]5CCc6cccnc6[C@H]54)c(CN4CCOCC4)n23)CC1` [Example 59, (4aR,10bS)-1-{[5-(4-methyl-1-piperazinyl)-3-(4-morpholinylmethyl)imidazo[1,2-a]pyridin-2-yl]methyl}-1,2,3,4,4a,5,6,10b-octahydro-1,10-phenanthroline] cannot be ordered by pIC50: over 7.00 for the first, over 7.00 for the second.

`c1cnc2c(c1)CC[C@@H]1CCCN(Cc3nc4ccccc4n3C[C@H]3CCCNC3)[C@H]21` [Example 64, (4aR,10bS)-1-({1-[(3S)-3-piperidinylmethyl]-1H-benzimidazol-2-yl}methyl)-1,2,3,4,4a,5,6,10b-octahydro-1,10-phenanthroline] and `CN1CCC[C@H](Cn2c(CN3CCC[C@H]4CCc5cccnc5[C@H]43)nc3ccccc32)C1` [Example 66, (4aR,10bS)-1-[(1-{[(3S)-1-methyl-3-piperidinyl]methyl}-1H-benzimidazol-2-yl)methyl]-1,2,3,4,4a,5,6,10b-octahydro-1,10-phenanthroline] cannot be ordered by pIC50: over 7.00 for the first, over 7.00 for the second.

`CC(C)N1CCC[C@H](Cn2c(CN3CCC[C@H]4CCc5cccnc5[C@H]43)nc3ccccc32)C1` [Example 65, (4aR,10bS)-1-[(1-{[(3S)-1-(1-methylethyl)-3-piperidinyl]methyl}-1H-benzimidazol-2-yl)methyl]-1,2,3,4,4a,5,6,10b-octahydro-1,10-phenanthroline] and `CN1CCC(N(C)c2cccc3nc(CN4CCC[C@H]5CCc6cccnc6[C@H]54)cn23)C1` (stereo partly drawn) [Example 75, 2-[(4aR,10bS)-3,4,4a,5,6,10b-hexahydro-1,10-phenanthrolin-1(2H)-ylmethyl]-N-methyl-N-(1-methyl-3-pyrrolidinyl)imidazo[1,2-a]pyridin-5-amine] cannot be ordered by pIC50: over 7.00 for the first, over 7.00 for the second.

First: CN(C)C1CCN(c2cccc3nc(CN4CCC[C@H]5CCc6cccnc6[C@H]54)cn23)CC1 [Example 67, 1-{2-[(4aR,10bS)-3,4,4a,5,6,10b-hexahydro-1,10-phenanthrolin-1(2H)-ylmethyl]imidazo[1,2-a]pyridin-5-yl}-N,N-dimethyl-4-piperidinamine]
Second: OC1CCN(c2cccc3nc(CN4CCC[C@H]5CCc6cccnc6[C@H]54)cn23)CC1 [Example 69, 1-{2-[(4aR,10bS)-3,4,4a,5,6,10b-hexahydro-1,10-phenanthrolin-1(2H)-ylmethyl]imidazo[1,2-a]pyridin-5-yl}-4-piperidinol]
The pIC50 of the first is higher: over 7.00 for the first, 6.30 to 7.00 for the second.

`CN1CCC(Nc2cccc3nc(CN4CCC[C@H]5CCc6cccnc6[C@H]54)cn23)CC1` [Example 68, 2-[(4aR,10bS)-3,4,4a,5,6,10b-hexahydro-1,10-phenanthrolin-1(2H)-ylmethyl]-N-(1-methyl-4-piperidinyl)imidazo[1,2-a]pyridin-5-amine] and `CN1CCC(N(C)c2cccc3nc(CN4CCC[C@H]5CCc6cccnc6[C@H]54)cn23)CC1` [Example 74, 2-[(4aR,10bS)-3,4,4a,5,6,10b-hexahydro-1,10-phenanthrolin-1(2H)-ylmethyl]-N-methyl-N-(1-methyl-4-piperidinyl)imidazo[1,2-a]pyridin-5-amine] cannot be ordered by pIC50: over 7.00 for the first, over 7.00 for the second.

`CN(C)CCN(C)c1cccc2nc(CN3CCC[C@H]4CCc5cccnc5[C@H]43)cn12` [Example 70, N-{2-[(4aR,10bS)-3,4,4a,5,6,10b-hexahydro-1,10-phenanthrolin-1(2H)-ylmethyl]imidazo[1,2-a]pyridin-5-yl}-N,N′,N′-trimethyl-1,2-ethanediamine] and `C[C@@H]1CN(c2cccc3nc(CN4CCC[C@H]5CCc6cccnc6[C@H]54)cn23)C[C@H](C)N1` [Example 77, (4aR,10bS)-1-({5-[(3R,5S)-3,5-dimethyl-1-piperazinyl]imidazo[1,2-a]pyridin-2-yl}methyl)-1,2,3,4,4a,5,6,10b-octahydro-1,10-phenanthroline] cannot be ordered by pIC50: over 7.00 for the first, over 7.00 for the second.

`c1cnc2c(c1)CC[C@@H]1CCCN(Cc3cn4c(N5CCC(N6CCCCC6)CC5)cccc4n3)[C@H]21` [Example 71, (4aR,10bS)-1-{[5-(1,4′-bipiperidin-1′-yl)imidazo[1,2-a]pyridin-2-yl]methyl}-1,2,3,4,4a,5,6,10b-octahydro-1,10-phenanthroline] and `c1cnc2c(c1)CC[C@@H]1CCCN(Cc3cn4c(N5CCC(N6CCCC6)CC5)cccc4n3)[C@H]21` [Example 72, (4aR,10bS)-1-({5-[4-(1-pyrrolidinyl)-1-piperidinyl]imidazo[1,2-a]pyridin-2-yl}methyl)-1,2,3,4,4a,5,6,10b-octahydro-1,10-phenanthroline] cannot be ordered by pIC50: over 7.00 for the first, over 7.00 for the second.

First: CCN1CCN(c2cccc3nc(CN4CCC[C@H]5CCc6cccnc6[C@H]54)cn23)CC1 [Example 73, (4aR,10bS)-1-{[5-(4-ethyl-1-piperazinyl)imidazo[1,2-a]pyridin-2-yl]methyl}-1,2,3,4,4a,5,6,10b-octahydro-1,10-phenanthroline]
Second: c1cnc2c(c1)CC[C@@H]1CCCN(Cc3cn4c(N5CCSCC5)cccc4n3)[C@H]21 [Example 78, (4aR,10bS)-1-{[5-(4-thiomorpholinyl)imidazo[1,2-a]pyridin-2-yl]methyl}-1,2,3,4,4a,5,6,10b-octahydro-1,10-phenanthroline]
The pIC50 of the first is higher: over 7.00 for the first, 6.30 to 7.00 for the second.

First: c1cnc2c(c1)CC[C@@H]1CCCN(Cc3cn4c(N5CCC(C6CCNCC6)CC5)cccc4n3)[C@H]21 [Example 76a, (4aR,10bS)-1-{[5-(4,4′-bipiperidin-1-yl)imidazo[1,2-a]pyridin-2-yl]methyl}-1,2,3,4,4a,5,6,10b-octahydro-1,10-phenanthroline]
Second: C[C@@H]1CN[C@@H](C)CN1c1cccc2nc(CN3CCC[C@H]4CCc5cccnc5[C@H]43)cn12 [Example 79, (4aR,10bS)-1-({5-[(2R,5S)-2,5-dimethyl-1-piperazinyl]imidazo[1,2-a]pyridin-2-yl}methyl)-1,2,3,4,4a,5,6,10b-octahydro-1,10-phenanthroline]
The pIC50 of the first is lower: 6.30 to 7.00 for the first, over 7.00 for the second. The second is the more potent here.

First: c1cnc2c(c1)CC[C@@H]1CCCN(Cc3cn4c(N5CCC(C6CCN(c7cccc8nc(CC9CCC[C@H]%10CCc%11cccnc%11[C@@H]9%10)cn78)CC6)CC5)cccc4n3)[C@H]21 (stereo partly drawn) [Example 76b, (4aR,10bS)-1-{[5-(1′-{2-[(6aS,10aR)-5,6,6a,7,8,9,10,10a-octahydrobenzo[h]quinolin-10-ylmethyl]imidazo[1,2-a]pyridin-5-yl}-4,4′-bipiperidin-1-yl)imidazo[1,2-a]pyridin-2-yl]methyl}-1,2,3,4,4a,5,6,10b-octahydro-1,10-phenanthroline]
Second: c1ccc(N2CCN(c3cccc4nc(CN5CCC[C@H]6CCc7cccnc7[C@H]65)cn34)CC2)nc1 [Example 80, (4aR,10bS)-1-({5-[4-(2-pyridinyl)-1-piperazinyl]imidazo[1,2-a]pyridin-2-yl}methyl)-1,2,3,4,4a,5,6,10b-octahydro-1,10-phenanthroline]
The pIC50 of the first is lower: 5.00 to 6.30 for the first, 6.30 to 7.00 for the second.
